{"source": "patent US20260110682A1", "about": "“COMPOSITIONS AND METHODS TARGETING SWIP-10 AND MBLAC1 FOR THE THERAPEUTIC MODULATION OF COPPER DYSHOMEOSTASIS” (Florida Atlantic University Board of Trustees, priority 2022, published 2026)", "key": {"[1]": {"test_system": "mitochondrial respiration", "conditions": "swip-10 KO worms treated with FCCP", "excerpt": "Data here are presented as mean oxygen consumption (pmol/second) of 100 worms. ** represents statistical significance (P<0.01) compared to the N2 strain by a two-tailed (unpaired) t-test."}, "[2]": {"test_system": "GLT1 type glutamate transporter", "conditions": "rodents treated with ceftriaxone; cited from earlier work"}, "MBLAC1": {"molecular_target": "T1, MBLAC1 (Homo sapiens, UniProt A4D2B0)", "T1 sequence (A4D2B0 1-266)": "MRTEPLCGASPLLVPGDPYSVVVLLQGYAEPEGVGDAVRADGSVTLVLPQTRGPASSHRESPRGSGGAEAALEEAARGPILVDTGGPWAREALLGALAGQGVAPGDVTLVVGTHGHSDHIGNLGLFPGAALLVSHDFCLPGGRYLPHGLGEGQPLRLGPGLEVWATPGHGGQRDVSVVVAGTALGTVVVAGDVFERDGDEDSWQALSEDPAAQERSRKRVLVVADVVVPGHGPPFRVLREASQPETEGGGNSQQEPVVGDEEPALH", "conditions": "cited from earlier work"}, "[3]": {"test_system": "animal models of AD and other neurodegenerative disorders", "conditions": "stroke, oxygen glucose deprivation induced neurodegeneration, motor neuron degeneration; cited from earlier work"}, "DA neurons": {"test_system": "DA neurons", "assay": "DA neuron degeneration in worms with GFP-labeled DA neurons (BY250), scored by fluorescence/confocal imaging", "assay_type": "in vivo, C. elegans", "conditions": "for rescue of DA neuron degeneration of swip-10: BY250", "method": "FIG. 6A: WT transgenic worms with GFP-labeled DA neurons (BY250) were raised on agar plates containing vehicle or 10 μM of the Cu+ specific chelator BCS and imaged by fluorescence microscopy at the late L4 stage to quantify DA neuron degeneration. Data derived from 4 experiments for each condition with statistical evaluation by a one-tailed Student's t-test. […] CuCl2 is known to generate Cu+ upon uptake into cells, thus elevating intracellular Cu+ levels. […] Sustained alterations in mitochondrial function and increased oxidative stress are expected to place neurons at risk for death due to their high metabolic rate. […] Assays were performed blind to genotype and treatment, and degeneration assessed by scoring the frequency of dendritic breaks, shrunken soma and missing neurons as described by Gibson et al, 2018. Extending work examining degeneration in BY250: swip-10 vs BY250, a potential Cu-sensitive regulation of swip-10 degeneration was assessed using growth of BY250 animals on the Cu+ specific chelator, BCS, to promote degeneration, and incubation of BY250: swip-10 on CuCl2 and elesclomol to prevent swip-10 degeneration."}, "chca-1": {"test_system": "chca-1", "assay": "qPCR of chca-1 RNA levels in worms", "assay_type": "in vivo, C. elegans", "conditions": "N2 worms treated with BCS; similar extent as in swip-10 animals"}, "Menkes disease": {"test_system": "Menkes disease", "conditions": "boosting Cu levels; cited from earlier work"}}, "data": [{"compound": "N#CC(C#N)=NNc1ccc(OC(F)(F)F)cc1", "note": "[FCCP]", "values": [{"measurement": "oxygen consumption", "setting": "[1]", "result": "restores oxygen consumption"}]}, {"compound": "CO/N=C(\\C(=O)N[C@@H]1C(=O)N2C(C(=O)O)=C(CSc3nc(=O)c(=O)[nH]n3C)CS[C@H]12)c1csc(N)n1", "note": "[ceftriaxone]", "values": [{"measurement": "GLT1 type glutamate transporter level", "setting": "[2]", "result": "triggers an elevation"}, {"measurement": "binding to MBLAC1", "setting": "MBLAC1", "result": "binds MBLAC1"}, {"measurement": "neuroprotection", "setting": "[3]", "result": "demonstrates neuroprotection"}]}, {"compound": "Cc1cc(-c2ccc(S(=O)(=O)O)cc2)c2ccc3c(-c4ccc(S(=O)(=O)O)cc4)cc(C)nc3c2n1", "note": "[BCS, bathocuproinedisulfonic acid]", "values": [{"measurement": "DA neuron degeneration", "setting": "DA neurons; WT (BY250) worms raised on agar plates containing 10 μM BCS, imaged at late L4 stage", "result": "DA neuron degeneration generated"}, {"measurement": "chca-1 RNA levels", "setting": "chca-1", "result": "elevated"}]}, {"compound": "CN(NC(=O)CC(=O)NN(C)C(=S)c1ccccc1)C(=S)c1ccccc1", "note": "[elesclomol]", "values": [{"measurement": "pathology associated with Menkes disease", "setting": "Menkes disease", "result": "reduce pathology"}, {"measurement": "rescue of DA neuron degeneration of swip-10", "setting": "DA neurons; swip-10 animals incubated with elesclomol (5 μM)", "result": "rescued"}]}, {"compound": "[Cl][Cu][Cl]", "note": "[CuCl2]", "values": [{"measurement": "rescue of DA neuron degeneration of swip-10", "setting": "DA neurons; swip-10 animals incubated with CuCl2 (10 μM)", "result": "rescued"}]}]}
